Data taken from US12486267B2, “Imidazo[1,2-A]pyridine and [1,2,4]triazolo[1,5-A]pyridine derivatives as TLR9 inhibitors for the treatment of fibrosis” (BRISTOL-MYERS SQUIBB COMPANY, priority 2020, dated 2025).

What was measured:
Type in all cases: cell-based
human TLR8 = molecular target: T1, human TLR8 (Homo sapiens, UniProt Q9NR97); experiment: TLR8 inhibition reporter assay (HEK-Blue cells, SEAP reporter); details: HEK-Blue cells overexpressing human TLR8; stimulated with R848 15.9 μM; 22 hour incubation; SEAP readout
T1 sequence (Q9NR97 27-1041): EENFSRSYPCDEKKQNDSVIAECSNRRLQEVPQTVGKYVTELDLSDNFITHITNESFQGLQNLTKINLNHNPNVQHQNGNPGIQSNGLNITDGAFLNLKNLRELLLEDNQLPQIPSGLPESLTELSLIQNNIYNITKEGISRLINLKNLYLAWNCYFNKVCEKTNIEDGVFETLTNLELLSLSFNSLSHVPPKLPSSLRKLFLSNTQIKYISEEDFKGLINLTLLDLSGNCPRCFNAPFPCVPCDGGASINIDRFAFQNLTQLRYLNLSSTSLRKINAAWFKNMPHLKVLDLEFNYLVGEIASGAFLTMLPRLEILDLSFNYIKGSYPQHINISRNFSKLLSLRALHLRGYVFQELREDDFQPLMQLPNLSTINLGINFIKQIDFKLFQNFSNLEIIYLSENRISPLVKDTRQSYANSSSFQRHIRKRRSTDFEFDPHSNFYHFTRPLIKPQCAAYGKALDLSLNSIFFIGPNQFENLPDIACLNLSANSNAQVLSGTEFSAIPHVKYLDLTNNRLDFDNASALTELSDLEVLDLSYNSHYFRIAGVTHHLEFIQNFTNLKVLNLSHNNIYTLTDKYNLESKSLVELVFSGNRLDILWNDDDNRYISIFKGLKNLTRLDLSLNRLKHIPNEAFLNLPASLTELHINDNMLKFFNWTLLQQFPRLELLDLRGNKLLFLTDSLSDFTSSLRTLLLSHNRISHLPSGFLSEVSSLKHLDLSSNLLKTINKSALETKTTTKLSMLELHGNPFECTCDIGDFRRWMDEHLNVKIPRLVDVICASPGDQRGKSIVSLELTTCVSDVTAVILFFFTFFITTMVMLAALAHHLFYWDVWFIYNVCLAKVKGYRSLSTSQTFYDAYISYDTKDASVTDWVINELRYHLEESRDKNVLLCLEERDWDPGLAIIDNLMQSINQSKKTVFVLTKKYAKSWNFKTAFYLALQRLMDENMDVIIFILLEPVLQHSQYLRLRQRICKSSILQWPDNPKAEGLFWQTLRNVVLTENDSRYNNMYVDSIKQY
Outline: (§1)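 HEK-Blue cells with NF-κB/AP-1-driven SEAP pre-treated 30 min with compound (0.05 nM–50 μM), then stimulated with gardiquimod 7.5 μM (TLR7), R848 15.9 μM (TLR8) or ODN2006 5 nM (TLR9). SEAP detected after 22 h at 37 °C; percent inhibition relative to agonist-plus-DMSO and known-inhibitor wells.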

human TLR7 = molecular target: T2, human TLR7 (Homo sapiens, UniProt Q9NYK1); experiment: TLR7 inhibition reporter assay (HEK-Blue cells, SEAP reporter); details: HEK-Blue cells overexpressing human TLR7; stimulated with gardiquimod 7.5 μM; 22 hour incubation; SEAP readout
T2 sequence (Q9NYK1 27-1049): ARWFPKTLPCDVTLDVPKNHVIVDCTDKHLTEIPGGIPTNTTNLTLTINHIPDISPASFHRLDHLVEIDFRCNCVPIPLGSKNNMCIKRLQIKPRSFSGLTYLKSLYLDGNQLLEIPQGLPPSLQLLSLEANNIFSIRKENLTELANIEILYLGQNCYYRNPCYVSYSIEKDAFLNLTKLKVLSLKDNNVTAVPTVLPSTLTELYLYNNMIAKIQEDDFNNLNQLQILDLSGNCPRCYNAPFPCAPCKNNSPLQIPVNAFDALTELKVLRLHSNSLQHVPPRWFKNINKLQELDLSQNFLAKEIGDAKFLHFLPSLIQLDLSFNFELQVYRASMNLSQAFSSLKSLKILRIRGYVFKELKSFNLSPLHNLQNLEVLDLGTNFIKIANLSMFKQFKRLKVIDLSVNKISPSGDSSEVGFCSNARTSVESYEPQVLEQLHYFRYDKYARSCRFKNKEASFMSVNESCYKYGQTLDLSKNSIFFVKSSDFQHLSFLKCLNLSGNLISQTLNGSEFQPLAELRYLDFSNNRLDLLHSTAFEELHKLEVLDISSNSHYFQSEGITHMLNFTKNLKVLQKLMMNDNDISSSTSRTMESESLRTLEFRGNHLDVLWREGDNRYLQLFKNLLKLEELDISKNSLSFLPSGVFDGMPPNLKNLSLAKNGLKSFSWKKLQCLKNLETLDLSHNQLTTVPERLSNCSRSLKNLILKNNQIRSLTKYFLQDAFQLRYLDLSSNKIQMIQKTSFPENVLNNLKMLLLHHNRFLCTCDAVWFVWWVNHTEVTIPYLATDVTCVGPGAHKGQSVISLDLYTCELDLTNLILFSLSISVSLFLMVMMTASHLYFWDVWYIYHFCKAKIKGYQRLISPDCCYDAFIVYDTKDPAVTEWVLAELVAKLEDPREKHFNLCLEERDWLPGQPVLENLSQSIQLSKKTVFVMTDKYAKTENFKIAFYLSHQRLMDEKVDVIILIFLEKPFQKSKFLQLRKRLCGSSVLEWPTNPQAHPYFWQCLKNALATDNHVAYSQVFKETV
Outline: as §1

human TLR9 = molecular target: T3, human TLR9 (Homo sapiens, UniProt Q9NR96); experiment: TLR9 inhibition reporter assay (HEK-Blue cells, SEAP reporter); details: HEK-Blue cells overexpressing human TLR9; stimulated with ODN2006 5 nM; 22 hour incubation; SEAP readout
T3 sequence (Q9NR96 26-1032): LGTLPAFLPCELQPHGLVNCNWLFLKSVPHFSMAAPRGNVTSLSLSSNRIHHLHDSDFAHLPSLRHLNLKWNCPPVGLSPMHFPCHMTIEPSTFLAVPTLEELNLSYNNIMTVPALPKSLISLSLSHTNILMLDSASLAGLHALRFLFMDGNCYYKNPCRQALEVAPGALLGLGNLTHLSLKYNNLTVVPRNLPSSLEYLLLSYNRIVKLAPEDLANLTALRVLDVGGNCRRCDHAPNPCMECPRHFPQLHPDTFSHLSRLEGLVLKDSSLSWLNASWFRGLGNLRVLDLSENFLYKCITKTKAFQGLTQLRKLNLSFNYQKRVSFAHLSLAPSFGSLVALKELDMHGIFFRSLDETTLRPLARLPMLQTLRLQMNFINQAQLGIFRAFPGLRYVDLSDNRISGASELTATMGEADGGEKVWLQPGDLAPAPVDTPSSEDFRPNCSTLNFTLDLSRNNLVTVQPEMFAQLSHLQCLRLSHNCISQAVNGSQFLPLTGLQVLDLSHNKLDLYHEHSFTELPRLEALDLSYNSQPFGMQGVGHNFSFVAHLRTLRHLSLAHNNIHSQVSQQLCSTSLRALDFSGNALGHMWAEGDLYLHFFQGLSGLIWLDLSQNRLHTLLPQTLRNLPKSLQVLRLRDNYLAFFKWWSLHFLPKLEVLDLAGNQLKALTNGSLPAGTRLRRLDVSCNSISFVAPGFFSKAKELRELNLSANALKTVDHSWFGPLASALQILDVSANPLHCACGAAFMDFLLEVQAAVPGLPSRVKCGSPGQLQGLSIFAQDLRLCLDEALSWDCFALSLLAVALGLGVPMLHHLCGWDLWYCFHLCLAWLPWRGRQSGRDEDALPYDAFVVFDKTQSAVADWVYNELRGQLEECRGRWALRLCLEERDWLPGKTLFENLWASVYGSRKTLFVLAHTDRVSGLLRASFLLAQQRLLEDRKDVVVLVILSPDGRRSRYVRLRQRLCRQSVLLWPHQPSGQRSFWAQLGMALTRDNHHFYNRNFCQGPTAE
Outline: as §1

| SMILES | IC50 (human TLR8) [nM] | IC50 (human TLR7) [nM] | IC50 (human TLR9) [nM] |
| --- | --- | --- | --- |
| CS(=O)(=O)c1ccc(-c2cn3cc(C4CCN(C5CC6CCC(C5)N6CC5CC5)CC4)cc(F)c3n2)cc1 (single isomer, unassigned) [Example 115, 6-(1-(8-(cyclopropylmethyl)-8-azabicyclo[3.2.1]octan-3-yl)piperidin-4-yl)-8-fluoro-2-(4-(methylsulfonyl)phenyl)imidazo[1,2-a]pyridine] | 49000 | 1700 | 43 |
| CS(=O)(=O)c1ccc(-c2cn3cc(C4CCN(C5CC6CCC(C5)N6C5COC5)CC4)cc(F)c3n2)cc1 (single isomer, unassigned) [Example 119, 8-fluoro-2-(4-(methylsulfonyl)phenyl)-6-(1-(8-(oxetan-3-yl)-8-azabicyclo[3.2.1]octan-3-yl)piperidin-4-yl)imidazo[1,2-a]pyridine] | > 50000 | 10600 | 30 |
| CS(=O)(=O)c1ccc(-c2cn3cc(C4CCN(C5CC6CCC(C5)N6C5COC5)CC4)cc(F)c3n2)cc1 (single isomer, unassigned) [Example 120, 8-fluoro-2-(4-(methylsulfonyl)phenyl)-6-(1-(8-(oxetan-3-yl)-8-azabicyclo[3.2.1]octan-3-yl)piperidin-4-yl)imidazo[1,2-a]pyridine] | > 50000 | 16700 | 709 |
| CS(=O)(=O)c1ccc(-c2cn3cc(C4CCN(C5CC6CCC(C5)N6C5CCOCC5)CC4)cc(F)c3n2)cc1 (single isomer, unassigned) [Example 121, 8-fluoro-2-(4-(methylsulfonyl)phenyl)-6-(1-(8-(tetrahydro-2H-pyran-4-yl)-8-azabicyclo[3.2.1]octan-3-yl)piperidin-4-yl) imidazo[1,2-a]pyridine] | > 50000 | 3400 | 11 |
| CC(C)CN1CCCC(N2CCC(c3cc(F)c4nc(-c5ccc(S(C)(=O)=O)cc5)cn4c3)CC2)CC1 (single isomer, unassigned) [Example 125, 8-fluoro-6-(1-(1-isobutylazepan-4-yl)piperidin-4-yl)-2-(4-(methylsulfonyl)phenyl) imidazo[1,2-a]pyridine] | 47400 | 12700 | 20 |
| CC(C)CN1CCCC(N2CCC(c3cc(F)c4nc(-c5ccc(S(C)(=O)=O)cc5)cn4c3)CC2)CC1 (single isomer, unassigned) [Example 126, 8-fluoro-6-(1-(1-isobutylazepan-4-yl)piperidin-4-yl)-2-(4-(methylsulfonyl)phenyl) imidazo[1,2-a]pyridine] | 46700 | 7400 | 7.8 |

The next compounds have a lower IC50 (human TLR8) than those just listed; values first:

| IC50 (human TLR8) [nM] | IC50 (human TLR7) [nM] | IC50 (human TLR9) [nM] | SMILES |
| --- | --- | --- | --- |
| 14000 | 700 | 3.9 | CS(=O)(=O)c1ccc(-c2cn3cc(C4CCN(C5CC6CCC(C5)N6CC5CC5)CC4)cc(F)c3n2)cc1 (single isomer, unassigned) [Example 116, 6-(1-(8-(cyclopropylmethyl)-8-azabicyclo[3.2.1]octan-3-yl)piperidin-4-yl)-8-fluoro-2-(4-(methylsulfonyl)phenyl)imidazo[1,2-a]pyridine] |
| 20000 | 1500 | 22 | CS(=O)(=O)c1ccc(-c2cn3cc(C4CCN(C5CC6CCC(C5)N6C5CCC5)CC4)cc(F)c3n2)cc1 (single isomer, unassigned) [Example 117, 6-(1-(8-cyclobutyl-8-azabicyclo[3.2.1]octan-3-yl)piperidin-4-yl)-8-fluoro-2-(4-(methylsulfonyl)phenyl)imidazo[1,2-a]pyridine] |
| 17100 | 1100 | 21 | CS(=O)(=O)c1ccc(-c2cn3cc(C4CCN(C5CC6CCC(C5)N6C5CCC5)CC4)cc(F)c3n2)cc1 (single isomer, unassigned) [Example 118, 6-(1-(8-cyclobutyl-8-azabicyclo[3.2.1]octan-3-yl)piperidin-4-yl)-8-fluoro-2-(4-(methylsulfonyl)phenyl)imidazo[1,2-a]pyridine] |
| 27000 | 1300 | 7.8 | CS(=O)(=O)c1ccc(-c2cn3cc(C4CCN(C5CC6CCC(C5)N6C5CCOCC5)CC4)cc(F)c3n2)cc1 (single isomer, unassigned) [Example 122, 8-fluoro-2-(4-(methylsulfonyl)phenyl)-6-(1-(8-(tetrahydro-2H-pyran-4-yl)-8-azabicyclo[3.2.1]octan-3-yl)piperidin-4-yl) imidazo[1,2-a]pyridine] |
| 36000 | 1600 | 9.7 | CS(=O)(=O)c1ccc(-c2cn3cc(C4CCN(C5CCCN(CC6CC6)CC5)CC4)cc(F)c3n2)cc1 (single isomer, unassigned) [Example 127, 6-(1-(1-(cyclopropylmethyl)azepan-4-yl)piperidin-4-yl)-8-fluoro-2-(4-(methylsulfonyl)phenyl)imidazo[1,2-a]pyridine] |
